In brackets after ≈: the same amount, converted by molar mass.
What was measured:
Format in all cases: functional
Staphylococcus aureus [1] = experiment: Antibacterial activity against Staphylococcus aureus KCTC 209 after 24 hrs by broth microdilution method; details: KCTC 209, 24 h
Staphylococcus aureus [2] = experiment: Antibacterial activity against Staphylococcus aureus KCTC 503 after 24 hrs by broth microdilution method; details: KCTC 503, 24 h
Staphylococcus aureus [3] = experiment: Antibacterial activity against Staphylococcus aureus RN4220 after 24 hrs by broth microdilution method; details: RN4220, 24 h
Escherichia coli = experiment: Antibacterial activity against Escherichia coli CCARM 1356 after 24 hrs by broth microdilution method; details: CCARM 1356, 24 h
Staphylococcus aureus [4] = experiment: Antibacterial activity against methicillin-resistant Staphylococcus aureus CCARM 3167 clinical isolate after 24 hrs by broth microdilution method; details: CCARM 3167, 24 h
Staphylococcus aureus [5] = experiment: Antibacterial activity against methicillin-resistant Staphylococcus aureus CCARM 3506 clinical isolate after 24 hrs by broth microdilution method; details: CCARM 3506, 24 h
Staphylococcus aureus [6] = experiment: Antibacterial activity against quinolone-resistant Staphylococcus aureus CCARM 3505 clinical isolate after 24 hrs by broth microdilution method; details: CCARM 3505, 24 h
Staphylococcus aureus [7] = experiment: Antibacterial activity against quinolone-resistant Staphylococcus aureus CCARM 3519 clinical isolate after 24 hrs by broth microdilution method; details: CCARM 3519, 24 h
Staphylococcus aureus [8] = experiment: Ratio of norfloxacin MIC to compound MIC for methicillin-resistant Staphylococcus aureus CCARM 3167 clinical isolate
Staphylococcus aureus [9] = experiment: Ratio of norfloxacin MIC to compound MIC for methicillin-resistant Staphylococcus aureus CCARM 3506 clinical isolate
Staphylococcus aureus [10] = experiment: Ratio of norfloxacin MIC to compound MIC for quinolone-resistant Staphylococcus aureus CCARM 3505 clinical isolate
Staphylococcus aureus [11] = experiment: Ratio of norfloxacin MIC to compound MIC for quinolone-resistant Staphylococcus aureus CCARM 3519 clinical isolate

SMILES | MIC (Staphylococcus aureus [1]) | MIC (Staphylococcus aureus [2]) | MIC (Staphylococcus aureus [3]) | MIC (Escherichia coli) | MIC (Staphylococcus aureus [4]) | MIC (Staphylococcus aureus [5]) | MIC (Staphylococcus aureus [6]) | MIC (Staphylococcus aureus [7]) | Ratio (Staphylococcus aureus [8]) | Ratio (Staphylococcus aureus [9]) | Ratio (Staphylococcus aureus [10]) | Ratio (Staphylococcus aureus [11])
O=Cc1ccc(/C=C/C(=O)c2ccc3ccccc3c2)cc1 | > 64 µg/mL | > 64 µg/mL | > 64 µg/mL | > 64 µg/mL | > 64 µg/mL | > 64 µg/mL | > 64 µg/mL | > 64 µg/mL | – | – | – | –
O=C(/C=C/c1ccc(/C=C2\SC(=S)N([C@@H](Cc3ccccc3)C(=O)O)C2=O)cc1)c1ccccc1F | 16 µg/mL (≈ 30.9 µM) | 16 µg/mL (≈ 30.9 µM) | 4 µg/mL (≈ 7.73 µM) | > 64 µg/mL | 4 µg/mL (≈ 7.73 µM) | 4 µg/mL (≈ 7.73 µM) | 8 µg/mL (≈ 15.5 µM) | 8 µg/mL (≈ 15.5 µM) | 2 | 2 | 2 | 2
O=C(/C=C/c1ccc(/C=C2\SC(=S)N([C@@H](Cc3ccccc3)C(=O)O)C2=O)cc1)c1ccc(F)cc1 | 16 µg/mL (≈ 30.9 µM) | 16 µg/mL (≈ 30.9 µM) | 4 µg/mL (≈ 7.73 µM) | > 64 µg/mL | 4 µg/mL (≈ 7.73 µM) | 4 µg/mL (≈ 7.73 µM) | 8 µg/mL (≈ 15.5 µM) | 8 µg/mL (≈ 15.5 µM) | 2 | 2 | 2 | 2
O=C(/C=C/c1ccc(/C=C2\SC(=S)N([C@@H](Cc3ccccc3)C(=O)O)C2=O)cc1)c1ccccc1Cl | 16 µg/mL (≈ 30 µM) | 16 µg/mL (≈ 30 µM) | 2 µg/mL (≈ 3.74 µM) | > 64 µg/mL | 2 µg/mL (≈ 3.74 µM) | 4 µg/mL (≈ 7.49 µM) | 4 µg/mL (≈ 7.49 µM) | 4 µg/mL (≈ 7.49 µM) | 2 | 2 | 2 | 2
O=Cc1ccc(OCc2cccc(F)c2)cc1 | > 64 µg/mL | > 64 µg/mL | > 64 µg/mL | > 64 µg/mL | > 64 µg/mL | > 64 µg/mL | > 64 µg/mL | > 64 µg/mL | – | – | – | –
O=Cc1ccc(OCc2ccc(F)cc2)cc1 | > 64 µg/mL | > 64 µg/mL | > 64 µg/mL | > 64 µg/mL | > 64 µg/mL | > 64 µg/mL | > 64 µg/mL | > 64 µg/mL | – | – | – | –
O=Cc1ccc(OCc2ccccc2Cl)cc1 | > 64 µg/mL | > 64 µg/mL | > 64 µg/mL | > 64 µg/mL | > 64 µg/mL | > 64 µg/mL | > 64 µg/mL | > 64 µg/mL | – | – | – | –
O=Cc1ccc(OCc2cccc(Cl)c2)cc1 | > 64 µg/mL | > 64 µg/mL | > 64 µg/mL | > 64 µg/mL | > 64 µg/mL | > 64 µg/mL | > 64 µg/mL | > 64 µg/mL | – | – | – | –
O=Cc1ccc(OCc2ccc(Cl)cc2)cc1 | > 64 µg/mL | > 64 µg/mL | > 64 µg/mL | > 64 µg/mL | > 64 µg/mL | > 64 µg/mL | > 64 µg/mL | > 64 µg/mL | – | – | – | –
O=Cc1ccc(OCc2ccc(Cl)cc2Cl)cc1 | > 64 µg/mL | > 64 µg/mL | > 64 µg/mL | > 64 µg/mL | > 64 µg/mL | > 64 µg/mL | > 64 µg/mL | > 64 µg/mL | – | – | – | –
O=Cc1ccc(OCc2cccc(Br)c2)cc1 | > 64 µg/mL | > 64 µg/mL | > 64 µg/mL | > 64 µg/mL | > 64 µg/mL | > 64 µg/mL | > 64 µg/mL | > 64 µg/mL | – | – | – | –
O=Cc1ccc(OCc2ccc(Br)cc2)cc1 | > 64 µg/mL | > 64 µg/mL | > 64 µg/mL | > 64 µg/mL | > 64 µg/mL | > 64 µg/mL | > 64 µg/mL | > 64 µg/mL | – | – | – | –
Cc1ccc(COc2ccc(C=O)cc2)cc1 | > 64 µg/mL | > 64 µg/mL | > 64 µg/mL | > 64 µg/mL | > 64 µg/mL | > 64 µg/mL | > 64 µg/mL | > 64 µg/mL | – | – | – | –
O=C1NC(=S)NC(=O)C1=Cc1ccc(/C=C/C(=O)c2ccccc2F)cc1 | > 64 µg/mL | > 64 µg/mL | > 64 µg/mL | > 64 µg/mL | > 64 µg/mL | > 64 µg/mL | > 64 µg/mL | > 64 µg/mL | – | – | – | –
O=C1NC(=S)NC(=O)C1=Cc1ccc(/C=C/C(=O)c2ccc(F)cc2)cc1 | > 64 µg/mL | > 64 µg/mL | > 64 µg/mL | > 64 µg/mL | > 64 µg/mL | > 64 µg/mL | > 64 µg/mL | > 64 µg/mL | – | – | – | –
O=C1NC(=S)NC(=O)C1=Cc1ccc(/C=C/C(=O)c2ccccc2Cl)cc1 | > 64 µg/mL | > 64 µg/mL | > 64 µg/mL | > 64 µg/mL | > 64 µg/mL | > 64 µg/mL | > 64 µg/mL | > 64 µg/mL | – | – | – | –
O=C1NC(=S)NC(=O)C1=Cc1ccc(/C=C/C(=O)c2cccc(Cl)c2)cc1 | > 64 µg/mL | > 64 µg/mL | > 64 µg/mL | > 64 µg/mL | > 64 µg/mL | > 64 µg/mL | > 64 µg/mL | > 64 µg/mL | – | – | – | –
O=C1NC(=S)NC(=O)C1=Cc1ccc(/C=C/C(=O)c2ccc(Cl)cc2)cc1 | > 64 µg/mL | > 64 µg/mL | > 64 µg/mL | > 64 µg/mL | > 64 µg/mL | > 64 µg/mL | > 64 µg/mL | > 64 µg/mL | – | – | – | –
O=C1NC(=S)S/C1=C/c1ccc(/C=C/C(=O)c2ccccc2F)cc1 | > 64 µg/mL | > 64 µg/mL | > 64 µg/mL | > 64 µg/mL | > 64 µg/mL | > 64 µg/mL | > 64 µg/mL | > 64 µg/mL | – | – | – | –
O=C1NC(=S)S/C1=C/c1ccc(/C=C/C(=O)c2ccc(F)cc2)cc1 | > 64 µg/mL | > 64 µg/mL | > 64 µg/mL | > 64 µg/mL | > 64 µg/mL | > 64 µg/mL | > 64 µg/mL | > 64 µg/mL | – | – | – | –
O=C1NC(=S)S/C1=C/c1ccc(/C=C/C(=O)c2ccccc2Cl)cc1 | > 64 µg/mL | > 64 µg/mL | > 64 µg/mL | > 64 µg/mL | > 64 µg/mL | > 64 µg/mL | > 64 µg/mL | > 64 µg/mL | – | – | – | –
O=C1NC(=S)S/C1=C/c1ccc(/C=C/C(=O)c2cccc(Cl)c2)cc1 | > 64 µg/mL | > 64 µg/mL | > 64 µg/mL | > 64 µg/mL | > 64 µg/mL | > 64 µg/mL | > 64 µg/mL | > 64 µg/mL | – | – | – | –
O=C1NC(=S)S/C1=C/c1ccc(/C=C/C(=O)c2ccc(Cl)cc2)cc1 | > 64 µg/mL | > 64 µg/mL | > 64 µg/mL | > 64 µg/mL | > 64 µg/mL | > 64 µg/mL | > 64 µg/mL | > 64 µg/mL | – | – | – | –
O=Cc1ccc(OCc2ccccc2)cc1 | > 64 µg/mL | > 64 µg/mL | > 64 µg/mL | > 64 µg/mL | > 64 µg/mL | > 64 µg/mL | > 64 µg/mL | > 64 µg/mL | – | – | – | –
CCn1cc(C(=O)O)c(=O)c2cc(F)c(N3CCNCC3)cc21 [NORFLOXACIN] | 4 µg/mL (≈ 12.5 µM) | 2 µg/mL (≈ 6.26 µM) | 2 µg/mL (≈ 6.26 µM) | 16 µg/mL (≈ 50.1 µM) | 8 µg/mL (≈ 25.1 µM) | 4 µg/mL (≈ 12.5 µM) | > 64 µg/mL | > 64 µg/mL | – | – | – | –
Cc1onc(-c2ccccc2)c1C(=O)N[C@@H]1C(=O)N2[C@@H]1SC(C)(C)[C@@H]2C(=O)O [OXACILLIN] | 1 µg/mL (≈ 2.49 µM) | 1 µg/mL (≈ 2.49 µM) | 1 µg/mL (≈ 2.49 µM) | > 64 µg/mL | > 64 µg/mL | > 64 µg/mL | 1 µg/mL (≈ 2.49 µM) | 1 µg/mL (≈ 2.49 µM) | – | – | – | –

— ChEMBL document CHEMBL2086385, “Synthesis and antimicrobial evaluation of L-phenylalanine-derived C5-substituted rhodanine and chalcone derivatives containing thiobarbituric acid or 2-thioxo-4-thiazolidinone” (2012)
